# From the NIST ThermoML archive (doi:10.1016/j.fluid.2011.11.016)
# ± gives the expanded uncertainty stated by the source.
# Assay: xn = mol fraction of the nth substance listed
# Conditions: 298.15 K, 101.3 kPa, Liquid, Vibrating tube method
mass density (x2 = 0) [kg/m3],mass density (x2 = 0.0503) [kg/m3],mass density (x2 = 0.0991) [kg/m3],mass density (x2 = 0.2021) [kg/m3],mass density (x2 = 0.3118) [kg/m3],mass density (x2 = 0.3926) [kg/m3],mass density (x2 = 0.5039) [kg/m3],mass density (x2 = 0.666) [kg/m3],mass density (x2 = 0.7062) [kg/m3],mass density (x2 = 0.8061) [kg/m3],mass density (x2 = 0.9061) [kg/m3],mass density (x2 = 0.9539) [kg/m3],mass density (x1 = 1) [kg/m3],SMILES
773.88 ± 0.13,766.95 ± 0.14,760.53 ± 0.14,748.16 ± 0.15,735.69 ± 0.15,726.61 ± 0.15,717.21 ± 0.16,703.79 ± 0.17,700.61 ± 0.17,692.71 ± 0.17,685.62 ± 0.18,682.6 ± 0.18,–,C1CCCCC1 [cyclohexane] + CCCCCCC
–,–,–,–,–,–,–,–,–,–,–,–,679.57 ± 0.18,CCCCCCC [heptane] + C1CCCCC1
